From patent publication US20220033460A1, “IDENTIFICATION AND USE OF T CELL EPITOPES IN DESIGNING DIAGNOSTIC AND THERAPEUTIC APPROACHES FOR COVID-19” (priority 2020, published 2022)

System: TCRs from the BAL of COVID-19 patients
Type: cell-based, human

## LLLLDRLNQLESKMSGKGQQQQ (SARS-CoV-2 epitope) [N221-242]
  recognition of the peptide, effect of the mutation (NFAT activation): unaffected
